The structures appear in SMILES notation.

human P2X7 receptor, sequence (Q99572 whole entry R270H): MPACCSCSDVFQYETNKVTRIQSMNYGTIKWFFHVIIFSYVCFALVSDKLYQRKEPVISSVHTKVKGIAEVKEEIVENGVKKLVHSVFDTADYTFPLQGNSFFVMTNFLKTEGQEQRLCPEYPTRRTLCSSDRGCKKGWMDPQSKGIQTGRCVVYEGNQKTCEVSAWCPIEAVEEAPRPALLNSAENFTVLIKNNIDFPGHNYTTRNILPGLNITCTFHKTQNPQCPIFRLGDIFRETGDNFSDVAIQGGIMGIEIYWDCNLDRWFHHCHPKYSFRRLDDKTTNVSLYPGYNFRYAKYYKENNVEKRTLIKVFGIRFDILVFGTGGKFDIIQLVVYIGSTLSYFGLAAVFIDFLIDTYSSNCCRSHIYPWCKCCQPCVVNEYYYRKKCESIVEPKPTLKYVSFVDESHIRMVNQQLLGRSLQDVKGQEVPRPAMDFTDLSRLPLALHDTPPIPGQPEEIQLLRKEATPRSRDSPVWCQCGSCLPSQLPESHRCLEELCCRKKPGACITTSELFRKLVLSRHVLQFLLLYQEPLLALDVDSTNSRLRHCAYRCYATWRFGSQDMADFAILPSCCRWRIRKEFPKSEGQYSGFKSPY

The target in the first test is human P2X7 receptor (Homo sapiens (Human), UniProt Q99572, R270H). Kind of test: Evaluation of a human P2X7 receptor inhibitory activity (Yo-Pro uptake, BzATP stimulation, FLIPR TETRA). The class given is cell-based. Conditions: 1321N1 cells stably expressing human P2X7 receptor, Yo-Pro fluorescence. How it is done: Evaluation of a human P2X7 receptor inhibitory activity Stably expressing cell line (1321N1 cell transfected with the human P2X7 receptor gene (GenBank accession number NM_002562.5 including T606C and G952A SNP)) was used. The cells were seeded in a 384-well microtiter plate at a concentration of 8000 cells/well and cultured in the medium (10% fetal bovine serum, 25 mM HEPES, 1% penicillin and streptomycin in DMEM) for one day at 37° C. under 5% carbon dioxide atmosphere. After replacing with 20 μL of the HBSS buffer (20 mM HEPES, 55.6 mM D-glucose, 1× HBSS(−), pH7.4-7.5), 15 μL of 17.3 μM Yo-Pro solution in the HBSS buffer was added. The plate was placed in high-throughput cellular screening system FLIPR TETRA (Molecullar Devices, LLC.) and 15 μL of 130 μM BzATP solution in the HBSS buffer was added. Measurement of fluorescence intensity by FLIPR TETRA was started. After eight minutes, 15 μL of DMSO solutions containing different concentrations of the compound of the present invention as prepared by dilution with the HBSS buffer were dispensed to each well through the built-in automatic dispenser, and the measurement of fluorescence intensity was continued for 20 minutes. The maximum fluorescence intensity without the compound of the present invention is calculated as 0% inhibition and the maximum fluorescence intensity when the reference compound was added is calculated as 100% inhibition. Changing values of fluorescence intensity by the compound of the present invention were calculated by difference between maximum and minimum fluorescence intensity for 20 minutes. Inhibition ratios (%) were calculated from the following equation:
[formula] IC50 was calculated using logistic approximation.
As for IC50 value, value to below 10 nmol/L is represented as “A”, value from 10 nmol/L to below 100 nmol/L is represented as “B”, value from 100 nmol/L to below 500 nmol/L is represented as “C”, and value from 500 nmol/L to below 1 μmol/L is represented as “D”.
`COc1ccc(/N=c2\[nH]c(=O)c(F)c3n2C(c2ccc(F)cc2)CC3)c(C)n1` (stereo not shown) [Compound I-0069] displayed a half-maximal inhibitory concentration (IC50) of 10 nM.
Still for that read-out and setting: to `C=Cc1c2n(c(Nc3ccc(OC)nc3C)nc1=O)C(c1cc(F)cc(F)c1)CC2` (stereo not shown) [Compound I-0091] belongs 17 nM.

The same test, now with this note: 1321N1 cells stably expressing human P2X7 receptor, Yo-Pro fluorescence, class symbols.
In turn, `Cc1cc2c(cc1Nc1nc(=O)cc3n1C(c1cc(F)cc(F)c1)CC3)COC2` (stereo not shown) [Compound I-0066] had an IC50 of less than 10 nM.
Still for that read-out and setting: to `Cc1cc2c(cc1Nc1nc(=O)cc3n1C(c1ccc(F)cc1)CC3)COC2` (stereo not shown) [Compound I-0067] belongs less than 10 nM; to `COc1ccc(/N=c2\[nH]c(=O)c(F)c3n2C(c2ccc(F)cc2F)CC3)c(C)n1` (stereo not shown) [Compound I-0068], 10 to 100 nM.
On the same count and under the same terms, to `COc1ccc(/N=c2\[nH]c(=O)cc3n2C(c2ccc(F)cc2)CC3)c(C)n1` (stereo not shown) [Compound I-0070] belongs 10 to 100 nM.
On the same count and under the same terms, the value for `COc1cnc(C)c(Nc2nc(=O)cc3n2C(c2cc(F)cc(F)c2)CC3)c1` (stereo not shown) [Compound I-0071] was 10 to 100 nM; that for `COc1nc(C)c(Nc2nc(=O)cc3n2C(c2cc(F)cc(F)c2)CC3)cc1F` (stereo not shown) [Compound I-0072] was 10 to 100 nM; that for `Cc1cc2c(cc1/N=c1\[nH]c(=O)c(F)c3n1C(c1ccc(F)cc1F)CC3)COC2` (stereo not shown) [Compound I-0073] was 10 to 100 nM.
In turn, `Cc1cc2c(cc1/N=c1\[nH]c(=O)c(F)c3n1C(c1ccc(F)cc1)CC3)COC2` (stereo not shown) [Compound I-0074] returned an IC50 of less than 10 nM.
On to `CCOc1ccc(/N=c2\[nH]c(=O)cc3n2C(c2ccc(F)cc2F)CC3)c(CC)n1` (stereo not shown) [Compound I-0075], for which the IC50 was in the range of 10 to 100 nM.
Same read-out and setting: the value for `CCOc1ccc(/N=c2\[nH]c(=O)c(F)c3n2C(c2ccc(F)cc2F)CC3)c(CC)n1` (stereo not shown) [Compound I-0076] was 10 to 100 nM; that for `Cc1cc(OC(F)F)ccc1Nc1nc(=O)cc2n1C(c1ccc(F)cc1)CC2` (stereo not shown) [Compound I-0077] was less than 10 nM.
Still for that read-out and setting: to `COc1cnc(C)c(/N=c2\[nH]c(=O)c(F)c3n2C(c2ccc(F)cc2)CC3)c1` (stereo not shown) [Compound I-0078] belongs 10 to 100 nM; to `COc1cnc(C)c(/N=c2\[nH]c(=O)cc3n2C(c2ccc(F)cc2)CC3)c1` (stereo not shown) [Compound I-0079], 10 to 100 nM; to `CCOc1ccc(/N=c2\[nH]c(=O)c(F)c3n2C(c2ccc(F)cc2)CC3)c(C)n1` (stereo not shown) [Compound I-0080], less than 10 nM.
Same read-out and setting: the value for `CCOc1ccc(/N=c2\[nH]c(=O)c(F)c3n2C(c2ccc(F)cc2F)CC3)c(C)n1` (stereo not shown) [Compound I-0081] was 10 to 100 nM; that for `CCOc1nc(C)c(Nc2nc(=O)cc3n2C(c2ccc(F)cc2F)CC3)cc1F` (stereo not shown) [Compound I-0082] was 10 to 100 nM; that for `CCOc1nc(C)c(Nc2nc(=O)c(F)c3n2C(c2ccc(F)cc2F)CC3)cc1F` (stereo not shown) [Compound I-0083] was 10 to 100 nM.
`COc1nc(C)c(Nc2nc(=O)cc3n2C(c2ccc(F)cc2F)CC3)cc1F` (stereo not shown) [Compound I-0084] yielded an IC50 of 10 to 100 nM.
Same read-out and setting: to `COc1ccc(Nc2nc(=O)c(Cl)c3n2C(c2cc(F)cc(F)c2)CC3)c(C)n1` (stereo not shown) [Compound I-0085] belongs 10 to 100 nM; to `COc1ccc(Nc2nc(=O)c(Br)c3n2C(c2cc(F)cc(F)c2)CC3)c(C)n1` (stereo not shown) [Compound I-0086], 10 to 100 nM; to `COc1ccc(Nc2nc(=O)c(C)c3n2C(c2cc(F)cc(F)c2)CC3)c(C)n1` (stereo not shown) [Compound I-0087], 10 to 100 nM.
`Cc1[nH]c(=O)c(F)cc1Nc1nc(=O)cc2n1C(c1ccc(F)cc1F)CC2` (stereo not shown) [Compound I-0088]: the 50% inhibitory concentration (IC50) lay within 500 to 1000 nM.
The same measure, in the same setting: to `COc1ccc(Nc2nc(=O)c(-c3ccccc3)c3n2C(c2cc(F)cc(F)c2)CC3)c(C)n1` (stereo not shown) [Compound I-0089] belongs 10 to 100 nM; to `COc1nc(C)c(Nc2nc(=O)cc3n2C(c2cc(F)c(F)c(F)c2)CC3)cc1F` (stereo not shown) [Compound I-0090], 10 to 100 nM.
Compound `CCc1c2n(c(Nc3ccc(OC)nc3C)nc1=O)C(c1cc(F)cc(F)c1)CC2` (stereo not shown) [Compound I-0092] displayed an IC50 of 10 to 100 nM.
On the same count and under the same terms, the value for `COc1ccc(/N=c2\[nH]c(=O)c(F)c3n2C(c2ccc(F)cc2F)CC3)c(C)n1` (stereo not shown) [Compound I-0093] was 100 to 500 nM.

The values are drawn from patent publication US11066409B2, “Bicyclic nitrogen-containing heterocyclic derivatives and pharmaceutical composition comprising the same” (Shionogi & Co., Ltd., priority 2016, dated 2021).
